Measured values as given in the NIST ThermoML archive (doi:10.1016/j.jct.2017.07.008).
Where “and” joins values, the source holds several entries; their conditions need not be identical. Equal values may be shown once. Numbers after ± are expanded uncertainties.

Settings: for mass density / viscosity / speed of sound / vapor or sublimation pressure: Liquid; for mass density: Vibrating tube method; for surface tension liquid-gas: Drop volume; for viscosity: Capillary tube (Ostwald / Ubbelohde) method; for speed of sound: Frequency=3 MHz, Single path-length method; for vapor or sublimation pressure: Ebulliometric method (Recirculating still)

OCc1cccs1 [2-thiophenemethanol]
Settings	mass density	speed of sound [m/s]	viscosity [mPa·s]
313.15 K, 55000 kPa	1216.51 ± 0.8 kg/m3	–	–
313.15 K, 60000 kPa	1218.68 ± 0.83 kg/m3	–	–
313.15 K, 65000 kPa	1220.8 ± 0.87 kg/m3	–	–
315.65 K, 100 kPa	1186.63 ± 0.53 kg/m3	1450.4 ± 0.78	4.147 ± 0.048
318.15 K, 100 kPa	1184.39 ± 0.53 kg/m3	1443.2 ± 0.78	3.87 ± 0.045
318.15 K, 2000 kPa	1185.52 ± 0.54 kg/m3	–	–
318.15 K, 5000 kPa	1187.27 ± 0.55 kg/m3	–	–
318.15 K, 7000 kPa	1188.42 ± 0.55 kg/m3	–	–
318.15 K, 10000 kPa	1190.12 ± 0.56 kg/m3	–	–
318.15 K, 15000 kPa	1192.88 ± 0.58 kg/m3	–	–
318.15 K, 20000 kPa	1195.57 ± 0.6 kg/m3	–	–
318.15 K, 25000 kPa	1198.18 ± 0.62 kg/m3	–	–
318.15 K, 30000 kPa	1200.72 ± 0.64 kg/m3	–	–
318.15 K, 35000 kPa	1203.2 ± 0.67 kg/m3	–	–
318.15 K, 40000 kPa	1205.62 ± 0.7 kg/m3	–	–
318.15 K, 45000 kPa	1207.98 ± 0.73 kg/m3	–	–
318.15 K, 50000 kPa	1210.29 ± 0.76 kg/m3	–	–
318.15 K, 55000 kPa	1212.54 ± 0.79 kg/m3	–	–
318.15 K, 60000 kPa	1214.74 ± 0.82 kg/m3	–	–
318.15 K, 65000 kPa	1216.9 ± 0.86 kg/m3	–	–
320.65 K, 100 kPa	1182.14 ± 0.53 kg/m3	1436 ± 0.78	3.615 ± 0.042
323.15 K, 100 kPa	1179.88 ± 0.53 kg/m3	1428.8 ± 0.78	3.355 ± 0.039
323.15 K, 2000 kPa	1181.03 ± 0.54 kg/m3	–	–
323.15 K, 5000 kPa	1182.82 ± 0.54 kg/m3	–	–
323.15 K, 7000 kPa	1183.99 ± 0.55 kg/m3	–	–
323.15 K, 10000 kPa	1185.73 ± 0.56 kg/m3	–	–
323.15 K, 15000 kPa	1188.55 ± 0.58 kg/m3	–	–
323.15 K, 20000 kPa	1191.29 ± 0.6 kg/m3	–	–
323.15 K, 25000 kPa	1193.95 ± 0.62 kg/m3	–	–
323.15 K, 30000 kPa	1196.55 ± 0.64 kg/m3	–	–
323.15 K, 35000 kPa	1199.07 ± 0.66 kg/m3	–	–
323.15 K, 40000 kPa	1201.53 ± 0.69 kg/m3	–	–
323.15 K, 45000 kPa	1203.93 ± 0.72 kg/m3	–	–
323.15 K, 50000 kPa	1206.28 ± 0.75 kg/m3	–	–
323.15 K, 55000 kPa	1208.56 ± 0.78 kg/m3	–	–
323.15 K, 60000 kPa	1210.8 ± 0.82 kg/m3	–	–
323.15 K, 65000 kPa	1212.99 ± 0.85 kg/m3	–	–
325.65 K, 100 kPa	1177.63 ± 0.53 kg/m3	1421.6 ± 0.78	3.17 ± 0.037
328.15 K, 100 kPa	1175.35 ± 0.53 kg/m3 and 1175.36 ± 0.53 kg/m3	1414.5 ± 0.78	2.957 ± 0.034
328.15 K, 2000 kPa	1176.53 ± 0.54 kg/m3	–	–
328.15 K, 5000 kPa	1178.35 ± 0.54 kg/m3	–	–
328.15 K, 7000 kPa	1179.55 ± 0.55 kg/m3	–	–
328.15 K, 10000 kPa	1181.33 ± 0.56 kg/m3	–	–
328.15 K, 15000 kPa	1184.21 ± 0.57 kg/m3	–	–
328.15 K, 20000 kPa	1187 ± 0.59 kg/m3	–	–
328.15 K, 25000 kPa	1189.72 ± 0.61 kg/m3	–	–
328.15 K, 30000 kPa	1192.36 ± 0.64 kg/m3	–	–
328.15 K, 35000 kPa	1194.93 ± 0.66 kg/m3	–	–
328.15 K, 40000 kPa	1197.44 ± 0.69 kg/m3	–	–
328.15 K, 45000 kPa	1199.88 ± 0.71 kg/m3	–	–
328.15 K, 50000 kPa	1202.26 ± 0.74 kg/m3	–	–
328.15 K, 55000 kPa	1204.58 ± 0.78 kg/m3	–	–
328.15 K, 60000 kPa	1206.86 ± 0.81 kg/m3	–	–
328.15 K, 65000 kPa	1209.08 ± 0.84 kg/m3	–	–
330.65 K, 100 kPa	1173.09 ± 0.53 kg/m3	1407.3 ± 0.78	2.785 ± 0.032
333.15 K, 100 kPa	1170.8 ± 0.53 kg/m3 and 1170.82 ± 0.53 kg/m3	1400.1 ± 0.78	2.628 ± 0.031
333.15 K, 2000 kPa	1172 ± 0.54 kg/m3	–	–
333.15 K, 5000 kPa	1173.87 ± 0.54 kg/m3	–	–
333.15 K, 7000 kPa	1175.1 ± 0.55 kg/m3	–	–
333.15 K, 10000 kPa	1176.91 ± 0.56 kg/m3	–	–
333.15 K, 15000 kPa	1179.85 ± 0.57 kg/m3	–	–
333.15 K, 20000 kPa	1182.7 ± 0.59 kg/m3	–	–
333.15 K, 25000 kPa	1185.47 ± 0.61 kg/m3	–	–
333.15 K, 30000 kPa	1188.16 ± 0.63 kg/m3	–	–
333.15 K, 35000 kPa	1190.78 ± 0.66 kg/m3	–	–
333.15 K, 40000 kPa	1193.33 ± 0.68 kg/m3	–	–
333.15 K, 45000 kPa	1195.82 ± 0.71 kg/m3	–	–
333.15 K, 50000 kPa	1198.24 ± 0.74 kg/m3	–	–
333.15 K, 55000 kPa	1200.6 ± 0.77 kg/m3	–	–
333.15 K, 60000 kPa	1202.91 ± 0.8 kg/m3	–	–
333.15 K, 65000 kPa	1205.17 ± 0.83 kg/m3	–	–
335.65 K, 100 kPa	1168.53 ± 0.53 kg/m3	1392.9 ± 0.78	2.486 ± 0.029
338.15 K, 100 kPa	1166.23 ± 0.53 kg/m3 and 1166.25 ± 0.53 kg/m3	1385.8 ± 0.78	2.372 ± 0.028
338.15 K, 2000 kPa	1167.46 ± 0.53 kg/m3	–	–
338.15 K, 5000 kPa	1169.37 ± 0.54 kg/m3	–	–
338.15 K, 7000 kPa	1170.63 ± 0.55 kg/m3	–	–
338.15 K, 10000 kPa	1172.48 ± 0.55 kg/m3	–	–
338.15 K, 15000 kPa	1175.48 ± 0.57 kg/m3	–	–
338.15 K, 20000 kPa	1178.39 ± 0.59 kg/m3	–	–
338.15 K, 25000 kPa	1181.22 ± 0.61 kg/m3	–	–
338.15 K, 30000 kPa	1183.96 ± 0.63 kg/m3	–	–
338.15 K, 35000 kPa	1186.63 ± 0.65 kg/m3	–	–
338.15 K, 40000 kPa	1189.22 ± 0.68 kg/m3	–	–
338.15 K, 45000 kPa	1191.75 ± 0.7 kg/m3	–	–
338.15 K, 50000 kPa	1194.21 ± 0.73 kg/m3	–	–
338.15 K, 55000 kPa	1196.62 ± 0.76 kg/m3	–	–
338.15 K, 60000 kPa	1198.96 ± 0.79 kg/m3	–	–
338.15 K, 65000 kPa	1201.25 ± 0.82 kg/m3	–	–

Settings	surface tension liquid-gas [mN/m]	vapor or sublimation pressure [kPa]
315.65 K	41.73 ± 0.29	–
318.15 K	41.48 ± 0.29	–
320.65 K	41.22 ± 0.29	–
323.15 K	40.95 ± 0.29	–
325.65 K	40.67 ± 0.29	–
328.15 K	40.4 ± 0.29	–
330.65 K	40.1 ± 0.29	–
333.15 K	39.8 ± 0.29	–
335.65 K	39.51 ± 0.29	–
338.15 K	39.24 ± 0.29	–
351.15 K	–	0.545 ± 0.1
354.25 K	–	0.665 ± 0.1
357.17 K	–	0.785 ± 0.1
361.3 K	–	1.025 ± 0.1
365.19 K	–	1.275 ± 0.1
366.38 K	–	1.355 ± 0.1
367.49 K	–	1.415 ± 0.1
368.14 K	–	1.475 ± 0.1
369.77 K	–	1.61 ± 0.1
372.56 K	–	1.88 ± 0.1
373.21 K	–	1.96 ± 0.1
377.74 K	–	2.44 ± 0.1
382.13 K	–	3.06 ± 0.1
386.07 K	–	3.675 ± 0.1
387.56 K	–	3.93 ± 0.1
388.56 K	–	4.15 ± 0.1
391.84 K	–	4.77 ± 0.1
393.87 K	–	5.25 ± 0.1
397.94 K	–	6.25 ± 0.1
399.72 K	–	6.8 ± 0.1
402.41 K	–	7.6 ± 0.1
404.37 K	–	8.25 ± 0.1
406.56 K	–	9 ± 0.1
408.27 K	–	9.665 ± 0.1
411.5 K	–	10.96 ± 0.1
415.06 K	–	12.6 ± 0.1
416.56 K	–	13.38 ± 0.1
418.63 K	–	14.47 ± 0.1
420.23 K	–	15.36 ± 0.1
422.21 K	–	16.51 ± 0.1
424.64 K	–	18.05 ± 0.1
426.07 K	–	19 ± 0.1
428.27 K	–	20.52 ± 0.1
429.37 K	–	21.34 ± 0.11
431.17 K	–	22.77 ± 0.11
432.56 K	–	23.88 ± 0.11
433.65 K	–	24.78 ± 0.11
